The species named for assay [1] is Rattus norvegicus. The assay is described as follows: Stereoselectivity in presence of rat liver microsomes. The class given is functional. A general note: Liver microsomes are vesicles of endoplasmic reticulum, rich in cytochrome P450 enzymes.
The species named for assay [2] is Rattus norvegicus. The assay is described as follows: Product stereoselectivity in presence of rat liver microsomes. The class given is functional.

The results in this text go back to ChEMBL document CHEMBL1123962, “Chemical aspects of metoprolol metabolism. Asymmetric synthesis and absolute configuration of the 3-[4-(1-hydroxy-2-methoxyethyl)phenoxy]-1-(isopropylamino)-2-propanols , the diastereomeric benzylic hydroxylation metabolites” (J Med Chem, 1988).

Each structure is given as a SMILES string.

As to `COCCc1ccc(OCC(O)CNC(C)C)cc1` (racemic), the Activity in assay [1] came out at 93.2%.

On to `COCCc1ccc(OC[C@H](O)CNC(C)C)cc1`, for which the Activity in assay [1] was 90.4%.

For the compound `COCCc1ccc(OC[C@@H](O)CNC(C)C)cc1`, the Activity in assay [2] was determined as 96.3%.
